Results as given in ChEMBL document CHEMBL1135923, “Conceptually new low-calcemic oxime analogues of the hormone 1 alpha,25-dihydroxyvitamin D(3): synthesis and biological testing” (J Med Chem, 2002).

Tests used:
[1] = target: T1, Vitamin D3 receptor (Rattus norvegicus) (UniProt P13053); test: Percent relative binding affinity for vitamin D receptor VDR; type: functional
T1 sequence (whole entry): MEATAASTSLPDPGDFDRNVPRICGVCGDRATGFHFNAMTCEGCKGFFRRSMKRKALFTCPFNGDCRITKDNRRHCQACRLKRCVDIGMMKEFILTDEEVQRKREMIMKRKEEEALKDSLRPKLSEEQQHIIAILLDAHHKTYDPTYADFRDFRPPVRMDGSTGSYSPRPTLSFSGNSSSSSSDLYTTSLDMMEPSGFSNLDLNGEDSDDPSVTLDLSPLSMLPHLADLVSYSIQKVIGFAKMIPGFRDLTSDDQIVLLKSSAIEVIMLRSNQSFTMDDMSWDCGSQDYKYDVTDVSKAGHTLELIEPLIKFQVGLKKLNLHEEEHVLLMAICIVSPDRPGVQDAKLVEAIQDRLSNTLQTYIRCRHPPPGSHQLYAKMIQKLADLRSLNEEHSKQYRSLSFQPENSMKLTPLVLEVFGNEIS

[2] = target: T1, Vitamin D3 receptor (Rattus norvegicus); test: In vitro vitamin D receptor-mediated transcriptional activity in rat osteosarcoma ROS 17/2.8 cells

RBA [1] | ED50 [2] | Compound
35% | 0.1 nM | C=C1/C(=C\C=C2/CCC[C@]3(C)C([C@H](C)CCCC(=O)C(C)(C)C)=CC[C@@H]23)C[C@H](O)C[C@H]1O
 | 0.4 nM | C=C1/C(=C\C=C2/CCC[C@]3(C)[C@@H]([C@H](C)CCCC(C)(C)O)CC[C@@H]23)C[C@@H](O)C[C@@H]1O
3% | 10 nM | C=C1/C(=C\C=C2/CCC[C@]3(C)C([C@H](C)CCC/C(=N\O)C(C)(C)C)=CC[C@@H]23)C[C@H](O)C[C@H]1O
< 3% | 2 nM | C=C1/C(=C\C=C2/CCC[C@]3(C)C([C@H](C)CCC/C(=N\OC)C(C)(C)C)=CC[C@@H]23)C[C@H](O)C[C@H]1O
